Reference: patent US20140080810A1 (Exelixis, Inc., priority 2010, published 2014)
pIC50: −log10 of the molar value.

Tests used:
[1] = system: pAKT (T308) in MCF-7 cells (PI3Kα E545K); test: pAKT (T308) ELISA Assay; assay type: cell-based; conditions: Homo sapiens, MCF7; IGF1 stimulation; read-out: pAKT (T308) IC50 MCF-7 PI3Kα E545K IGF1
Method: MCF-7 cells (ATCC) cells were seeded at 24000 cells per well in 96-well plates (Corning, 3904) in DMEM (Cellgro) containing 10% FBS (Cellgro), 1% NEAA (Cellgro) and 1% penicillin-streptomycin (Cellgro). Cells were incubated at 37° C., 5% CO2 for 48 h, and the growth medium was replaced with serum-free DMEM or in medium containing 0.4% BSA. Serial dilutions of the test Compound in 0.3% DMSO (vehicle) were added to the cells and incubated for 3 h. At the end of the incubation period, cells were stimulated for 10 minutes by the addition of L-IGF (Sigma, I-1271) at a final concentration of 100 ng/ml. Afterwards, media was discarded from cell plates and 110 μl/well of cold lysis buffer (see table below) were added. Cell plates were incubated on ice and then put on shaker in 4° C. cold room for 1 h. Two capture plates (Thermo Scientific, Reacti-bind plate, 15042) were prepared for each cell plate by pre-coating with capture Akt antibody from the two sandwich ELISA antibody pairs used (Cell Signaling Technology 7142 and 7144). The Akt capture antibodies were diluted 1:100 in PBS and 100 μl of diluted capture antibody was added per well. Capture plates were incubated at 4 C overnight. Prior to use, capture plates were washed 3 times in TBS containing 0.1% Tween20 (Bio-Rad, 170-6351) (TBST) and blocked in blocking buffer (Thermo Scientific, Starting Block T20, 37543) for 1-2 h at room temperature. After 1 h of cell lysis, 85 μl of cell lysate/well was transferred to the capture plate for detection of pAkt(T308). 15 μl of cell lysate was transferred from same well to the second capture plate for detection of total Akt1. After incubation overnight at 4° C., plates were washed 3 times with 200 μL TBST. Primary antibodies, diluted 1:100 in blocking buffer, were added to the corresponding capture plates for pAkt(T308) (Cell Signaling Technology, 7144) and total Akt1 (Cell Signaling Technology, 7142) detection and incubated at room temperature for 1 h. Plates were washed 3 times with 200 μL of TBST. Goat anti-mouse secondary antibody (Cell Signaling Technology, 7076) conjugated to HRP was diluted 1:1000 in blocking buffer and 100 μl were added to each well and incubated for 30 minutes at room temperature. Plates were then washed 3 times with 200 μL of TBST. 100 μL of SuperSignal ELISA Femto stable peroxidase solution (Thermo Scientific, 37075) was added to each well. After 1 minute incubation, chemiluminescence was read on a Wallac Victor2 1420 multilabel counter. IC50 values were determined based on the ratio of pAkt(T308) to total Akt1 signal for Compound treated wells, normalized to the DMSO-treated control wells.
In another embodiment, the pAKT ELISA Assay was performed by seeding cells onto 96-well plates (Corning, 3904) in their respective growth media at the densities listed in Table 5. Cells were incubated at 37° C., 5% CO2 for 48 h (except MDA-MB-453 cells which were cultured in the absence of CO2). Compounds were serially diluted in DMSO and subsequently diluted in serum-free DMEM. Test compounds were added to cells in serum-free DMEM at a final concentration of 0.3% DMSO and incubated for 3 h. Cells were lysed with 130 μL of ice-cold RIPA lysis buffer (50 mM Tris-HCl, pH 7.5; 0.5% sodium deoxycholic acid; 1% Triton X-100; 0.1% SDS; 150 mM NaCl) with protease and phosphatase inhibitors (1 mM EDTA, 1 mM NaF, 20 mM β-glycerophosphate, 1 mM Na-orthovanadate, Complete-Mini EDTA-free, Roche, 11836170001, and Phosphatase Inhibitor Cocktail I, Sigma, P2850), directly in 96-well plates. Cells were lysed on ice for 60-120 min at 4° C. The supernatants were added directly to capture ELISA plates previously pre-coated with rabbit anti-AKT capture antibody. ELISA assays for pAKT(T308) and total AKT were performed with the pAKT(T308) ELISA kit (Cell Signaling Technology, 7144) and AKT1 ELISA kit (Cell Signaling Technology, 7142). For the pAKT(T308) ELISA, 85 μL of cell lysate was added to each well. […]

PTEN-negative tumors [2] = conditions: specific inhibition of PI3Kβ; cited from earlier work
PTEN-negative tumors [3] = conditions: specific inhibition of PI3Kβ; cited from earlier work; remark: listed apart in the source

pIC50 [1]: 5.75
Compound: Cc1cc(C(C)Nc2ccccc2)c2nc(N3CCOCC3)cc(=O)n2c1 (stereo not drawn) [TGX-221, 7-methyl-2-(4-morpholinyl)-9-[1-(phenylamino)ethyl]-4H-pyrido[1,2-a]pyrimidin-4-one]
cell growth (PTEN-negative tumors [2]): blocks | basal AKT phosphorylation (PTEN-negative tumors [3]): blocks
